Tested on: KB
Experiment: Cytotoxicity against human KB cells after 24 hrs by MTT assay
Type: functional, cell-based

SMILES | IC50
CC1=C[C@H]2OC(=O)[C@@]3(C)CCC[C@@](C)([C@@H]23)[C@H]1CC(=O)c1ccoc1 [HYPOPURIN A] | 9.4 µM
CC1=C[C@H]2OC3OC(=O)[C@@]4(C)CCC[C@@]3([C@@H]24)[C@H]1CC(=O)c1ccoc1 [HYPOPURIN B] | > 100 µM
C[C@@]12C=C[C@@H]3[C@]4(CCC[C@]3(C)C(=O)OC4O1)[C@H]2CC(=O)c1ccoc1 (some centres undefined) [HYPOPURIN C] | > 100 µM
CC1=C[C@H]2OC(=O)[C@@]3(C)CCC[C@@](C)([C@@H]23)[C@H]1CCC1=CCOC1=O [HYPOPURIN D] | > 100 µM

— ChEMBL document CHEMBL1148960, “Furanolabdane diterpenes from Hypoestes purpurea” (J Nat Prod, 2004)
